Assay results as given in publication PMC9921896 (Molecules, 2023).

Key:
estrogenicity = conditions: cited from earlier work
CYP2B6 = target: T1, CYP2B6 (Homo sapiens, UniProt P20813); test: Single concentration Kobs assay (time-dependent inhibition) in HLM; format: biochemical; conditions: human liver microsomes, significant if >50%, read-out: 2B6 R_Inh% (reversible inhibition)
T1 construct: Using HLM as the enzyme source; from tissue; host or cells: human liver microsomes
T1 sequence (P20813 1-491): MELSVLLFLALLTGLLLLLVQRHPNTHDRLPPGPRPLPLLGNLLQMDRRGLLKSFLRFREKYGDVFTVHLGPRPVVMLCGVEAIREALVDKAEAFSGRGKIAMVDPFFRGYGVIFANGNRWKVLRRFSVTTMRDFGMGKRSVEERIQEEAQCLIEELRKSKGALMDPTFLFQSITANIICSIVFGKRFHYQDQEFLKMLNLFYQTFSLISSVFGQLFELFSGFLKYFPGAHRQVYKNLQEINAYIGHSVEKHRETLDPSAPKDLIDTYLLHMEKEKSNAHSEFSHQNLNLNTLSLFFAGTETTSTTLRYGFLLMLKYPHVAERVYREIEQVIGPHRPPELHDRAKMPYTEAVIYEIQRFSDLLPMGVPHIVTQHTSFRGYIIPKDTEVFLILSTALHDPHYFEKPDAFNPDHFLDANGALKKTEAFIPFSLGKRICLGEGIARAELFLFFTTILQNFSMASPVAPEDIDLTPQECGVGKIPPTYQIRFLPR

[1] = Metabolite identification (MetID) in hepatocytes by LC-MS/MS; format: in vitro ADME, human; conditions: 80 min incubation, HR LC-MS/MS, metabolite M1, parent ion m/z 551 (375 + 176)
From the text: However, on the contrary, these metabolites can also be formed with higher or equivalent toxicity when compared to the parent ligand. Therefore, to gain such an understanding of metabolite toxicity, 223-2 TbB ligand was shortlisted for metabolite identification (MetID) studies as it was the least prominent CYP inhibitor among the three TbB ligands studied for CYP inhibition, as discussed in earlier sections. The metabolites’ detection and identification were accomplished by utilizing the high-resolution LC-MS/MS (HR LC-MS/MS) technique and the obtained fragmentation pattern was subsequently analyzed to propose putative structures as discussed in the following paragraph. MetID studies was initiated first for the parent 223-2 ligand by HR LC-MS/MS as its fragmentation understanding could act as a guide to potentially identify the metabolites formed after incubation with hepatocytes. Since the 223-2 TbB ligand contain N and O atoms, it could be easily protonated and it was sensitive in positive ionization mode. Consequently, it was studied using the positive fragmentation pattern by ESI-MS ^n .
To understand the fragmentation pattern of the parent compound, EPI spectrum was analyzed. […] Next, TbB ligand 223-2 was incubated (80 min) with hepatocytes and a new metabolite (M1) could be detected when compared with the control (0 min). […]

inhibition at 30 min (CYP2B6) | metabolite detected after incubation with hepatocytes [1] | SMILES | estrogenicity by in vitro studies (estrogenicity)
< 50% | formation of glucuronide | COc1cc(-c2nnn(-c3cc(OC)c(O)c(OC)c3)n2)cc(OC)c1O [223-2] | potentially non-estrogenic
< 50% | – | Cc1cc(-c2nnn(-c3cc(C)c(O)c(C)c3)n2)cc(C)c1O [223-3] | potentially non-estrogenic
< 50% | – | Oc1ccc(-c2nnn(-c3ccc(O)cc3)n2)cc1 [223-10] | –
